Measurements taken from US5324725A, “7-fused 2-(piperazinoalkyl) indole derivatives, intermediates and compositions thereof” (Kali-Chemie Pharma GmbH, priority 1991, dated 1994).

What was measured:
5-lipoxygenase = molecular target: T1, 5-lipoxygenase (Mus musculus, UniProt P48999); test: 5-lipoxygenase inhibition: release of LTC4 from zymosan-stimulated mouse peritoneal macrophage cells; format: cell-based; settings: 10^-5 mol/l, read-out: In vitro % inhibition effect on the release of LTC4
T1 construct: A cell suspension containing peritoneal cells of male mice 8-10 weeks old was obtained; endogenous in cells; host or cells: mouse peritoneal macrophages (male mice 8-10 weeks old), zymosan-stimulated
T1 sequence (P48999 1-674): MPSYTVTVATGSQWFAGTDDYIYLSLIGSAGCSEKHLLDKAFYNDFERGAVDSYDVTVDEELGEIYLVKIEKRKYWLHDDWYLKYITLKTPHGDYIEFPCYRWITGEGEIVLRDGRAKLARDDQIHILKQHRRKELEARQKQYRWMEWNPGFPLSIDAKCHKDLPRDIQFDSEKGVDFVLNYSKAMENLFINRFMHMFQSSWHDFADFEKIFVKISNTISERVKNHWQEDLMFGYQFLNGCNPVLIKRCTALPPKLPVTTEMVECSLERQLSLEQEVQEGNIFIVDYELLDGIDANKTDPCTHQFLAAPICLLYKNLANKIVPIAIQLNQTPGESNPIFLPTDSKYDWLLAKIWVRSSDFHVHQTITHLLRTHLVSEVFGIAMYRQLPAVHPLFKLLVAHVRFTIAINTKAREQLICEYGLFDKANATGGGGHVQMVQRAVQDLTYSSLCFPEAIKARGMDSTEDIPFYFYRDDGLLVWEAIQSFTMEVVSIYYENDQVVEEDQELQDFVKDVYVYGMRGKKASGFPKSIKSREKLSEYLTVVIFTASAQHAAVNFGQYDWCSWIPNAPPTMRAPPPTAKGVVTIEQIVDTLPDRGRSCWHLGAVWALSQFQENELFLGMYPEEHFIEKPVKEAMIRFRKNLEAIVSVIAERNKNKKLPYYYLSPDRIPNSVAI
Source text: (§1) 5. In vitro determination of cyclooxygenase inhibition and 5-lipoxygenase inhibition.
(§2) After activation of the cell, arachidonic acid contained in cell membranes is metabolized in two ways. Leukotrienes, inter alia leukotriene C4, are formed under the action of the enzyme 5-lipoxygenase (5-LO), and prostanoids are formed under the action of the enzyme cyclooxygenase (CO). In in vitro systems, the metabolites are secreted from the cell.
(§3) To investigate the cyclooxygenase-inhibiting and the 5-lipoxygenase-inhibiting properties, the inhibitory effect of the test substances on the biosynthesis of the arachidonic acid derivatives leukotriene C4 (LTC4) and 6-ketoprostaglandin F1 α (6-keto-PGF1 α) is determined in vitro on mouse peritoneal macrophage cells. This was accomplished by determining the LTC4 and 6-keto-PGF1 α contents in a culture medium of mouse peritoneal macrophage cells by zymosan stimulation as described by Scott et al. (J. Exp. Med. 152 (1980), 324-335) and by Fradin et al. (Prostaglandins, 33 (1987), 579-589).
(§4) A cell suspension containing peritoneal cells of male mice 8-10 weeks old was obtained in a known manner. A commercially available cell culture solution (RPMI 1640 from Messrs. Gibco) was used to which heparin (I0 international units/ml) and antibiotics were added according to the recipe of Bonney et al. (Biochem. J. 176 (1978) 422-433). The cell suspension was adjusted to a cell concentration of 10^6 cells per ml and distributed uniformly on titer plates containing […] (wells). These were kept for two hours in a humidified incubator filled with air enriched with 7% CO2. Cells not adhering to the titer cell walls were then removed by washing. The remaining macrophage cells adhering to the walls were incubated for about 12 hours in a suspension medium to which 0.1% bovine serum albumin (BSA) were added. The suspension medium was then replaced by a Hanks balanced salt solution (HBSS) containing 10 mM Hepes (hydroxyethyl-piperazinoethanesulfonic acid), to which a 0.1% strength solution of the test substances in aqueous, 1% strength dimethylformamide or only the solvent had been added. After 15 minutes the arachidonic acid metabolism was stimulated by adding 10 particles of zymosan (=glycoproteinmixture, isolated from cell walls of beer yeast, Saccharomyces cerevisiae, manufactured by Sigma Chemical Co., Munich) per titer cell. After 2 hours, samples of each of the supernatant liquids were investigated for their 6-keto-PGF1 α and LTC4 contents by means of an enzyme immunoassay (EIA) carried out by the method of Pradelles et al. (Analytical Chem. 57 (1985), 1170-1173). The determination of LTC4 and the determination of 6-keto-PGF1 α were each carried out in comparison with a comparative scale on suitable dilutions of the samples (1:50 to 1:250 for the LTC4 determination and 1:250 to 1:1250 for the 6-keto-PGF1 α determination). To determine the inhibitory effect of a 10^-5 molar concentration of the compounds, the amount of reference eicosanoids was determined and the inhibitory effect was calculated from this in % inhibition compared to the measurements of the zymosan controls.

cyclooxygenase = molecular target: T2, cyclooxygenase (Mus musculus, UniProt P22437); test: Cyclooxygenase inhibition: release of 6-keto-PGF1 α from zymosan-stimulated mouse peritoneal macrophage cells; format: cell-based; settings: 10^-5 mol/l, read-out: In vitro % inhibition effect on the release of 6-keto-PGF1 α
T2 construct: A cell suspension containing peritoneal cells of male mice 8-10 weeks old was obtained; endogenous in cells; host or cells: mouse peritoneal macrophages (male mice 8-10 weeks old), zymosan-stimulated
T2 sequence (P22437 27-602): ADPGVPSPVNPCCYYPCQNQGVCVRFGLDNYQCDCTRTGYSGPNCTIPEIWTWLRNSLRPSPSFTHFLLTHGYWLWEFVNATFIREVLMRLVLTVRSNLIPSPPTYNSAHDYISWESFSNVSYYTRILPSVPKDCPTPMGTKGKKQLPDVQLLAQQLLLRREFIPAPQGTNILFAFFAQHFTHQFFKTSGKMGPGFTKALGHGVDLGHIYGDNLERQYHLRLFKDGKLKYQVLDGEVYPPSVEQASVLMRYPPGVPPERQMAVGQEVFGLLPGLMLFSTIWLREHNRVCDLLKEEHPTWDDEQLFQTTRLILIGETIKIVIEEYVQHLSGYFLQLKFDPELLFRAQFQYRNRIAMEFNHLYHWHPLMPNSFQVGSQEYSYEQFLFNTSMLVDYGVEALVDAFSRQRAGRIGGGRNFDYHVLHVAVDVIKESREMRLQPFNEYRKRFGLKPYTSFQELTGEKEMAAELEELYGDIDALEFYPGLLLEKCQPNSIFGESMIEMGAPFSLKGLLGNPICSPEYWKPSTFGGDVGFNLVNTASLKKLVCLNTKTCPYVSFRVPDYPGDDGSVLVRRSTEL
Source text: as §1, §2, §3, §4

inhibition at 10 µM (5-lipoxygenase) | inhibition at 10 µM (cyclooxygenase) | Compound
61% | 10% | Cc1ccnc(N2CCN(CCc3c(C)n4c5c(cc(C(=O)C(C)C)cc35)CCC4)CC2)c1 [Example 27, 5,6-dihydro-2-methyl-8-(2-methyl-1-oxopropyl)-1-{2-[4-(4-methylpyridin-2-yl)piperazin-1-yl]ethyl}-4H-pyrrolo-[3,2,1-ij]quinoline]
0% | 42% | Cc1ccnc(N2CCN(CCc3c(C)n4c5c(cc(N)cc35)CCC4)CC2)c1 [Example 20, 8-Amino-5,6-dihydro-2-methyl-1-{2-[4-(4-methylpyridin-2-yl)piperazin-1-yl]ethyl}-4H-pyrrolo[3,2,1-ij]quinoline]
– | 69% | Cc1ccnc(N2CCN(CCc3c(-c4ccc(F)cc4)n4c5c(cccc35)CCC4)CC2)c1 [Example 47]
4% | 21% | Cc1ccnc(N2CCN(CCc3c(C)n4c5c(cccc35)CC4C)CC2)c1 (stereo not shown) [Example 33]
69% | 24% | Cc1ccnc(N2CCN(CCc3c(C)n4c5c(cc(NC(=O)c6ccccc6)cc35)CCC4)CC2)c1 [Example 25, 8-Benzoylamino-5,6-dihydro-2-methyl-1-{2-[4-(4-methylpyridin-2-yl)piperazin-1-yl]-ethyl}-4H-pyrrolo[3,2,1-ij]quinoline]
62% | 52% | Cc1ccnc(N2CCN(CC(O)c3c(C4CCCCC4)n4c5c(cccc35)CCC4)CC2)c1 (stereo not shown) [Example 85]
94% | 64% | C=CCCC1CCc2cccc3c(CCN4CCN(c5cc(C)ccn5)CC4)c(C)n1c23 (stereo not shown) [Example 62]
56% | 49% | COc1ccc(-c2c(CCN3CCN(c4cc(C)ccn4)CC3)c3cccc4c3n2CCC4)cc1 [Example 7, 2-(4-methoxy-phenyl)-1-{2-[4-(4-methylpyridin-2-yl)piperazin-1-yl]ethyl}-5,6-dihydro-4H-pyrrolo[3,2,1-ij]quinoline]
24% | 57% | Cc1c(CCN2CCN(c3ccc(Br)cn3)CC2)c2cccc3c2n1CCC3 [Example 43]
89% | 52% | COc1ccc(C2CCc3cc(OC)cc4c(CCN5CCN(c6cc(C)ccn6)CC5)c(C)n2c34)cc1 (stereo not shown) [Example 65]
34% | 29% | Cc1ccnc(N2CCN(CCc3c(C)n4c5c(cc(C(=O)C6CCCCC6)cc35)CCC4)CC2)c1 [Example 83]
95% | 64% | Cc1ccnc(N2CCN(CCc3c(C)n4c5c(cc(CC(C)C)cc35)CCC4)CC2)c1 [Example 21, 5,6-Dihydro-2-methyl-8-(2-methylpropyl)-1-{2-[4-(4-methylpyridin-2-yl)piperazin-1-yl]ethyl}-4H-pyrrolo[3,2,1-ij]quinoline]
29% | 16% | Cc1ccnc(N2CCN(CCc3c(C)n4c5c(cc(N(C)C)cc35)CCC4)CC2)c1 [Example 81]
99% | 74% | Cc1ccnc(N2CCN(CCc3c(-c4ccc(O)cc4)n4c5c(cccc35)CCC4)CC2)c1 [Example 8, 2-(4-hydroxyphenyl)-1-{2-[4-(4-methylpyridin-2-yl)piperazin-1-yl]ethyl}-5,6-dihydro-4H-pyrrolo[3,2,1-ij]quinoline]
23% | 20% | Cc1ccnc(N2CCN(CCc3c(C)n4c5c(cccc35)CCC4C3CCCCC3)CC2)c1 (stereo not shown) [Example 87]
44% | 20% | CCCCCCCC1CCc2cccc3c(CCN4CCN(c5cc(C)ccn5)CC4)c(C)n1c23 (stereo not shown) [Example 4, 4-n-heptyl-5,6-dihydro-2-methyl-1-{2-[4-(4-methylpyridin-2-yl)piperazin-1-yl]ethyl}-4H-pyrrolo[3,2,1-ij]-quinoline]
89% | 68% | CC(C)=Cc1cc2c3c(c1)c(CCN1CCN(c4cc(C)ccn4)CC1)c(C)n3CCC2 [Example 26, 5,6-Dihydro-2-methyl-8-(2-methylprop-1-enyl)-1-{2-[4-(4-methylpyridin-2-yl)piperazin-1-yl]ethyl}-4H-pyrrolo[3,2,1-ij]quinoline]
75% | 67% | CCCCC1CCc2cc(O)cc3c(CCN4CCN(c5cc(C)ccn5)CC4)c(C)n1c23 (stereo not shown) [Example 76]
33% | 72% | Cc1ccnc(N2CCN(CCc3c(C)n4c5c(cc(C(=O)c6ccccc6)cc35)CCC4)CC2)c1 [Example 66]
81% | 54% | Cc1ccnc(N2CCN(CCc3c(C)n4c5c(ccc(C(=O)C(C)C)c35)SCC4)CC2)c1 [Example 91]
94% | 43% | CCCCC1CCc2cc(C(=O)C(C)C)cc3c(CCN4CCN(c5cc(C)ccn5)CC4)c(C)n1c23 (stereo not shown) [Example 23, 4-n-Butyl-5,6-dihydro-8-(2-methyl-1-oxopropyl)-2-methyl-1-{2-[4-(4-methylpyridin-2-yl)piperazin-1-yl]ethyl}-4H-pyrrolo[3,2,1-ij]quinoline]

Compound | inhibition at 10 µM (5-lipoxygenase) | inhibition at 10 µM (cyclooxygenase)
Cc1ccnc(N2CCN(CCc3c(C)n4c5c(cccc35)CCC4c3ccccc3)CC2)c1 (stereo not shown) [Example 3, 5,6-dihydro-2-methyl-4-phenyl-1-{2-[4-(4-methylpyridine-2-yl)piperazin-1-yl]-ethyl}-4H-pyrrolo[3,2,1-ij]quinoline] | 37% | 20%
Cc1ccnc(N2CCN(CCc3c(C)n4c5c(cccc35)CCC4)CC2)c1 [Example 1, 5,6-Dihydro-2-methyl-1-{2-[4-(4-methylpyridin-2-yl)piperazin-1-yl]ethyl}-4H-pyrrolo[3,2,1-ij]quinoline] | 24% | 23%
Cc1ccnc(N2CCN(CCc3c(C)n4c5c(ccc(Cl)c35)OCC4)CC2)c1 [Example 35] | 75% | 51%
Cc1ccc(N2CCN(CCc3c(C)n4c5c(cccc35)CCC4)CC2)nc1 [Example 42] | 15% | 76%
